In ChEMBL document CHEMBL1144926, “Structure-activity relationships of dynorphin a analogues modified in the address sequence” (J Med Chem, 2003):
pIC50, pKi: −log10 of the molar value. Non-standard residues stand in square brackets, D forms with d. Residues, ends and D or L forms follow the SMILES beside them. Nle = CCCC[C@H](N)C(=O)O

How the values were obtained:
[1] = target: Mu-type opioid receptor (Cavia porcellus) (UniProt P97266); settings: Ileum
[2] = target: T1, Kappa-type opioid receptor (Homo sapiens, UniProt P41145); assay: Antagonistic activity in the Opioid receptor kappa 1 -mediated [35S]GTP-gamma-S, binding assay against 50 nM U-50,488; format: functional
T1 sequence (P41145 whole entry): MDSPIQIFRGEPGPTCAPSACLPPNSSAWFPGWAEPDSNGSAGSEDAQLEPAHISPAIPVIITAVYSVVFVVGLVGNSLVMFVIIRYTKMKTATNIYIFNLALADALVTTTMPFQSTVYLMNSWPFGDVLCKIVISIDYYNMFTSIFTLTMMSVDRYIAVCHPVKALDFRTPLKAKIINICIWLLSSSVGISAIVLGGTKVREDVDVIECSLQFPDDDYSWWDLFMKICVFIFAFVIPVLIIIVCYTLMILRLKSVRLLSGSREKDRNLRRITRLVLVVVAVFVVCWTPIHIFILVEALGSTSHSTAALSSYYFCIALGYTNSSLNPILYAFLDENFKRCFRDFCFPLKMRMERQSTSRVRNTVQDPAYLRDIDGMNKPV

[3] = target: T1, Kappa-type opioid receptor; assay: biochemical; format: cell-based, CHO
Mu-type opioid receptor = Mu-type opioid receptor (Homo sapiens, UniProt P35372); assay: biochemical; format: cell-based, CHO
Chain of Mu-type opioid receptor (P35372 whole entry): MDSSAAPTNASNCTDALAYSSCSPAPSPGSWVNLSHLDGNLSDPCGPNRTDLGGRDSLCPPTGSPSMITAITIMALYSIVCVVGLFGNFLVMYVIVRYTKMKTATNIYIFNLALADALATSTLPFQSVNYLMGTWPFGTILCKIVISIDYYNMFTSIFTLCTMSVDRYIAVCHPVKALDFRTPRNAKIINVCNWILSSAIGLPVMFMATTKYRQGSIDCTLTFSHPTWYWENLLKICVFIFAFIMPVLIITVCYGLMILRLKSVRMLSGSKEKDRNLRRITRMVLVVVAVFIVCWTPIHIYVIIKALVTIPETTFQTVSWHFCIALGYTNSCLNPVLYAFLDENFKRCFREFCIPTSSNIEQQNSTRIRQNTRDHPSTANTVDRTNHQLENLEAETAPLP

[4] = target: Delta-type opioid receptor (Homo sapiens, UniProt P41143); assay: In vitro binding affinity to human Opioid receptor delta 1 on CHO cell membranes using [3H]diprenorphine displacement.
Chain of Delta-type opioid receptor (P41143 whole entry): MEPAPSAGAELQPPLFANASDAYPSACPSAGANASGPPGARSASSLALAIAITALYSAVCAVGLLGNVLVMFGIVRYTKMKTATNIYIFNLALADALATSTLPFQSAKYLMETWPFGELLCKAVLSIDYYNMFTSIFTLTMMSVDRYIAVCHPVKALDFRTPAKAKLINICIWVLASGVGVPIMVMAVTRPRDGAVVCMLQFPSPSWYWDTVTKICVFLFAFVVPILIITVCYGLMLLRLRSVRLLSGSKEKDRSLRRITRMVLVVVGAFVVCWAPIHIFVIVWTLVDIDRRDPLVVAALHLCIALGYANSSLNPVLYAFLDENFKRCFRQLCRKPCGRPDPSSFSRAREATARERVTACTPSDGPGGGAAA

[5] = target: T2, Opioid receptors; mu/kappa/delta (Homo sapiens) (UniProt P41145+P41143+P35372); assay: Binding affinity towards human kappa,mu,delta receptors was calculated as the ratio; 1/620/1300; format: protein assay
T2 sequence (P35372 whole entry, looked up): as the sequence (P35372 whole entry) above
T2 sequence (P41143 whole entry, looked up): as the sequence (P41143 whole entry) above
T2 sequence (P41145 whole entry, looked up): as the sequence (P41145 whole entry) above

[6] = target: T1, Kappa-type opioid receptor; format: functional
[7] = target: T2, Opioid receptors; mu/kappa/delta (Homo sapiens); assay: Binding affinity towards human kappa,mu,delta receptors was calculated as the ratio; 1/360/360; format: protein assay
[8] = target: T2, Opioid receptors; mu/kappa/delta (Homo sapiens); assay: Binding affinity towards human kappa,mu,delta receptors was calculated as the ratio; 1/560/1200; format: protein assay
[9] = target: T2, Opioid receptors; mu/kappa/delta (Homo sapiens); assay: Binding affinity towards human kappa,mu,delta receptors was calculated as the ratio; 1/3.4/2.3; format: protein assay
[10] = target: T1, Kappa-type opioid receptor; settings: 10 uM
[11] = target: T1, Kappa-type opioid receptor; assay: Antagonistic activity in theOpioid receptor kappa 1 -mediated [35S]GTP-gamma-S, binding assay against 50 nM U-50,488; format: functional
[12] = target: T2, Opioid receptors; mu/kappa/delta (Homo sapiens); assay: Binding affinity towards human kappa,mu,delta receptors was calculated as the ratio; 1/34/69; format: protein assay

Chain of Mu-type opioid receptor (Cavia porcellus) (P97266 whole entry): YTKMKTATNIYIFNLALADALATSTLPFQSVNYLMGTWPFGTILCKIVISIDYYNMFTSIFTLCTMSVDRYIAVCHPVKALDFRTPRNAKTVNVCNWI

| Molecule | pKi [3] | pKi (Mu-type opioid receptor) | pKi [4] | other results |
| --- | --- | --- | --- | --- |
| CC(C)C[C@H](NC(=O)[C@H](Cc1ccccc1)NC(=O)[C@@H]1CCCN1C(=O)CNC(=O)[C@@H](N)Cc1ccc(O)cc1)C(=O)N[C@@H](CCCN=C(N)N)C(=O)N[C@@H](CCCN=C(N)N)C(=O)N[C@@H](CCCN=C(N)N)C(=O)N[C@@H](CCCN=C(N)N)C(=O)N1CCC[C@@H]1C(=O)N[C@@H](CCCCN)C(N)=O |  |  |  | Ke [1]: 280 nM |
| CC(C)C[C@H](NC(=O)[C@H](Cc1ccccc1)NC(=O)[C@@H]1CCCN1C(=O)CNC(=O)[C@@H](N)Cc1ccc(O)cc1)C(=O)N[C@@H](CCCN=C(N)N)C(=O)N[C@@H](CCCN=C(N)N)C(=O)N[C@@H](CCCN=C(N)N)C(N)=O | 8.18 | 5.51 | < 4.00 | pIC50 [2]: 5.40 |
| CCCC[C@H](NC(=O)[C@H](CC(C)C)NC(=O)[C@H](Cc1ccccc1)NC(=O)[C@@H]1CCCN1C(=O)CNC(=O)[C@@H](N)Cc1ccc(O)cc1)C(=O)N[C@@H](CCCN=C(N)N)C(N)=O (H-YGPFL[Nle]R-NH2) | < 4.00 | < 4.00 | 4.85 |  |
| CC[C@H](C)[C@H](NC(=O)[C@H](CCCN=C(N)N)NC(=O)[C@H](CCCN=C(N)N)NC(=O)[C@H](CC(C)C)NC(=O)[C@H](Cc1ccccc1)NC(=O)[C@@H]1CCCN1C(=O)CNC(=O)[C@@H](N)Cc1ccc(O)cc1)C(=O)N[C@@H](CCCN=C(N)N)C(=O)N1CCC[C@@H]1C(=O)N[C@@H](CCCCN)C(N)=O |  |  |  | Ke [1]: 494 nM |
| CC[C@H](C)[C@H](NC(=O)[C@H](CCCNC(=N)N)NC(=O)[C@H](CCCNC(=N)N)NC(=O)[C@H](CC(C)C)NC(=O)[C@H](Cc1ccccc1)NC(=O)CNC(=O)CNC(=O)[C@@H](N)Cc1ccc(O)cc1)C(=O)N[C@@H](CCCNC(=N)N)C(=O)N1CCC[C@H]1C(=O)N[C@@H](CCCCN)C(=O)N[C@@H](CC(C)C)C(=O)N[C@@H](CCCCN)C(=O)O | 9.64 |  |  |  |
| CC[C@H](C)[C@H](NC(=O)[C@H](CCCN=C(N)N)NC(=O)[C@H](CCCN=C(N)N)NC(=O)[C@H](CC(C)C)NC(=O)[C@H](Cc1ccccc1)NC(=O)CNC(=O)CNC(=O)[C@@H](N)Cc1ccc(O)cc1)C(=O)O |  | 7.45 |  |  |
| CC[C@H](C)[C@H](NC(=O)[C@H](CCCN=C(N)N)NC(=O)[C@H](CCCN=C(N)N)NC(=O)[C@H](CC(C)C)NC(=O)[C@H](Cc1ccccc1)NC(=O)[C@@H]1CCCN1C(=O)CNC(=O)[C@@H](N)Cc1ccc(O)cc1)C(=O)N[C@@H](CCCN=C(N)N)C(=O)N1CCC[C@@H]1C(N)=O |  |  |  | Ki ratio [5]: kappa/mu/delta |
| CC(C)C[C@H](NC(=O)[C@H](Cc1ccccc1)NC(=O)[C@@H]1CCCN1C(=O)CNC(=O)[C@@H](N)Cc1ccc(O)cc1)C(=O)N[C@@H](CCCNC(=N)N)C(=O)N[C@@H](CCCNC(=N)N)C(=O)N[C@@H](CCCNC(=N)N)C(=O)N[C@@H](CCCNC(=N)N)C(=O)N1CCC[C@H]1C(=O)N[C@@H](CCCCN)C(N)=O |  |  |  | pIC50 [6]: 6.47; pKi ([3]; cho): 9.36; pKi (Mu-type opioid receptor; cho): 5.56; pKi ([4]; cho): 5.17 |
| CC[C@H](C)[C@H](NC(=O)[C@H](CCCN=C(N)N)NC(=O)[C@H](CCCN=C(N)N)NC(=O)[C@H](CC(C)C)NC(=O)[C@H](Cc1ccccc1)NC(=O)[C@@H]1CCCN1C(=O)CNC(=O)[C@@H](N)Cc1ccc(O)cc1)C(=O)N[C@@H](CCCN=C(N)N)C(=O)N1CCC[C@@H]1C(=O)N[C@@H](CCCCN)C(=O)O |  |  |  | Ki ratio [7]: kappa/mu/delta |
| H-YGPFLRRIR-NH2 | 7.97 | 5.22 | 4.88 | Ki ratio [8]: kappa/delta/mu |
| H-YGPFLRR-NH2 | 7.22 | 4.90 | 4.82 |  |
| CC[C@H](C)[C@H](NC(=O)[C@H](CCCNC(=N)N)NC(=O)[C@H](CCCNC(=N)N)NC(=O)[C@H](CC(C)C)NC(=O)[C@H](Cc1ccccc1)NC(=O)[C@@H]1CCCN1C(=O)CNC(=O)[C@@H](N)Cc1ccc(O)cc1)C(=O)N[C@@H](CCCNC(=N)N)C(=O)N[C@@H](CCCNC(=N)N)C(=O)N[C@@H](CCCCN)C(N)=O |  |  |  | pIC50 [6]: 6.39; pKi ([3]; cho): 8.92; pKi (Mu-type opioid receptor; cho): 5.78; pKi ([4]; cho): 5.49 |
| CC[C@H](C)[C@H](NC(=O)[C@H](CCCNC(=N)N)NC(=O)[C@H](CCCNC(=N)N)NC(=O)[C@H](CC(C)C)NC(=O)[C@H](Cc1ccccc1)NC(=O)[C@@H]1CCCN1C(=O)CNC(=O)[C@@H](N)Cc1ccc(O)cc1)C(=O)N[C@@H](CCCNC(=N)N)C(=O)N1CCC[C@H]1C(=O)N[C@@H](CCCCN)C(=O)O |  |  |  | pKi ([3]; cho): 7.38; pKi (Mu-type opioid receptor; cho): 4.82; pKi ([4]; cho): 4.82 |
| H-YGPFLR-NH2 [listing 1 of 2 here] |  |  |  | Ki ratio [9]: kappa/delta/mu |
| CC[C@H](C)[C@H](NC(=O)[C@H](CCCN=C(N)N)NC(=O)[C@H](CCCN=C(N)N)NC(=O)[C@H](CC(C)C)NC(=O)[C@H](Cc1ccccc1)NC(=O)CNC(=O)CNC(=O)[C@@H](N)Cc1ccc(O)cc1)C(=O)N[C@@H](CCCN=C(N)N)C(=O)N1CCC[C@H]1C(=O)N[C@@H](CCCCN)C(N)=O | 10.23 |  |  | Max stimulation [10]: 73% |
| CC(C)C[C@H](NC(=O)[C@H](Cc1ccccc1)NC(=O)CNC(=O)CNC(=O)[C@@H](N)Cc1ccc(O)cc1)C(=O)N[C@@H](CCCNC(=N)N)C(=O)N[C@@H](CCCNC(=N)N)C(=O)O |  | 7.42 | 8.01 |  |
| CC[C@H](C)[C@H](NC(=O)[C@H](CCCNC(=N)N)NC(=O)[C@H](CCCNC(=N)N)NC(=O)[C@H](CC(C)C)NC(=O)[C@H](Cc1ccccc1)NC(=O)[C@@H]1CCCN1C(=O)CNC(=O)[C@@H](N)Cc1ccc(O)cc1)C(=O)N[C@@H](CCCNC(=N)N)C(=O)N1CCC[C@H]1C(=O)N[C@@H](CCCCN)C(N)=O | 8.62 | 5.28 |  | pIC50 [11]: 6.36 |
| H-YGPFL-NH2 | < 5.00 | 4.81 | 4.73 |  |
| CC[C@H](C)[C@H](NC(=O)[C@H](CCCN=C(N)N)NC(=O)[C@H](CCCN=C(N)N)NC(=O)[C@H](CC(C)C)NC(=O)[C@H](Cc1ccccc1)NC(=O)[C@@H]1CCCN1C(=O)CNC(=O)[C@@H](N)Cc1ccc(O)cc1)C(=O)N[C@@H](CCCN=C(N)N)C(=O)N1CCC[C@H]1C(N)=O |  |  |  | pKi ([3]; cho): 8.00; pKi (Mu-type opioid receptor; cho): 5.21; pKi ([4]; cho): 4.87 |
| CC[C@H](C)[C@H](NC(=O)[C@H](CCCNC(=N)N)NC(=O)[C@H](CCCNC(=N)N)NC(=O)[C@H](CC(C)C)NC(=O)[C@H](Cc1ccccc1)NC(=O)CNC(=O)CNC(=O)[C@@H](N)Cc1ccc(O)cc1)C(=O)N[C@@H](CCCNC(=N)N)C(=O)N1CCC[C@H]1C(=O)O | 9.46 | 7.92 | 7.62 |  |
| H-YGGFLR-OH | 6.39 | 7.39 | 8.04 |  |
| CC[C@H](C)[C@H](NC(=O)[C@H](CCCN=C(N)N)NC(=O)[C@H](CCCN=C(N)N)NC(=O)[C@H](CC(C)C)NC(=O)[C@H](Cc1ccccc1)NC(=O)CNC(=O)CNC(=O)[C@@H](N)Cc1ccc(O)cc1)C(=O)N[C@@H](CCCN=C(N)N)C(=O)N1CCC[C@@H]1C(=O)O |  |  |  | Ki ratio [12]: kappa/mu/delta |
| Oc1ccc2c3c1O[C@H]1c4[nH]c5c(c4C[C@@]4(O)[C@@H](C2)N(CC2CC2)CC[C@]314)C[C@@]1(O)[C@H]2Cc3ccc(O)c4c3[C@@]1(CCN2CC1CC1)[C@H]5O4 |  |  |  | Ke [1]: 0.572 nM |
| H-YGGFLRRIR-OH | 8.60 | 7.62 | 8.01 |  |
| H-YGPFLRRI-NH2 | 7.10 | 4.79 | 4.79 |  |
| H-YGPFLR-NH2 [listing 2 of 2 here] | 5.25 | 4.71 | 4.90 |  |
| CC[C@H](C)[C@H](NC(=O)[C@H](CCCNC(=N)N)NC(=O)[C@H](CCCNC(=N)N)NC(=O)[C@H](CC(C)C)NC(=O)[C@H](Cc1ccccc1)NC(=O)[C@@H]1CCCN1C(=O)CNC(=O)[C@@H](N)Cc1ccc(O)cc1)C(=O)N[C@@H](CCCNC(=N)N)C(=O)N[C@@H](CCCNC(=N)N)C(N)=O |  |  |  | pIC50 [6]: 5.90; pKi ([3]; cho): 8.47; pKi (Mu-type opioid receptor; cho): 5.63; pKi ([4]; cho): 5.22 |
